{"source": "patent US20240398807A1", "about": "“COMPOSITIONS AND METHODS OF TREATING KIDNEY DISEASE AND FIBROSIS” (Mitokinin, Inc., priority 2020, published 2024)", "key": {"pS65-Ub": {"tested_on": "pS65-Ub", "experiment": "pS65-Ub ELISA of kidney mitochondrial preparations", "assay_type": "in vivo, mice (C57Bl/6)", "details": "single i.p. 30 mg/kg cisplatin", "procedure": "Kidneys were removed from -80° C. and minced on an ice block. Minced tissues were transferred to a dounce homogenizer and homogenized with 20× strokes of the 'loose' pestle and 20× strokes of the 'tight' pestle using 1 ml ul of cold mitochondrial isolation buffer (MIB, 50 mM Tris-HCl (pH 7.5), 70 mM sucrose, 210 mM sorbitol, 1 mM EDTA, 1 mM EGTA, 100 mM chloroacetamide, HaltTM Protease and Phosphatase Inhibitor Cocktail, EDTA-free (100×) (PI), 10 μM PR619). Kidney homogenate was transferred to a 1.5 ml Eppendorf tube and were centrifuged at 300×g for 5 min at 4° C. Approximately 800 ul of supernatant was transferred to a new 1.5 ml microcentrifuge tube. The supernatant (cytosol+mitochondria) was transferred to a new tube and centrifuged at 10,000 g for 20 min at 4° C. to pellet the mitochondrial fraction. After removing residual supernatant, mitochondria were resuspended in lysis buffer (100 mM Bicine pH 8.0, 0.27M Sucrose, 1 mM EDTA, 1 mM EGTA, 5 mM Na4P2O7, 100 mM Tris pH 7.5, 1% Triton X-100), containing benzonase (1:1000), HALT protease/phosphatase inhibitors (1:100), and PR-619 de-ubiquitinase inhibitor (1:1000). […] For peroxidase reaction, 50 ul of TMB reagent (Pierce #34029) was added to the wells after washing and wells were monitored closely for reaction development. […] Absorbance was measured at 450 nm using […] SpectraMax). […]"}, "mitochondrial DNA": {"tested_on": "mitochondrial DNA", "experiment": "kidney mtDNA/nucDNA ratio by qPCR", "assay_type": "in vivo", "procedure": "A small piece of frozen kidney tissue (˜12 mg) was homogenized and DNA extracted using the Qiagen QIAamp DNA mini kit. mtDNA/nucDNA ratio was determined using a qPCR protocol from the Aurwex lab (Quiros et al, 2017), using the following primers: 16S rRNA 5′-[…]-3′(SEQ ID NO:11) and 5′-[…]-3′ (SEQ ID NO:12); ND1 5′-[…]-3′ (SEQ ID NO: 13) and: 5′-[…]-3 (SEQ ID NO:14); HK2 5′-[…]-3′ (SEQ ID NO:15) and 5′-[…]-3′ (SEQ ID NO:16).\nReferring to FIG. 4, mice (C57Bl/6) were challenged with a single intraperitoneal dose of 10 mg/kg cisplatin. Tissue lysates were examined for mitochondrial gene ND1 and nuclear gene beta actin by quantitative PCR.\nReferring to FIG. 12, mice (C57Bl/6) were challenged with a single intraperitoneal dose of 10 mg/kg cisplatin and dosed by oral gavage, once per day (QD) for seven days with 35985."}, "PINK1": {"tested_on": "PINK1", "experiment": "Western blot for PINK1 in kidney mitochondrial preparations", "assay_type": "in vivo, mice (C57Bl/6)", "details": "C57Bl/6; single i.p. 30 mg/kg cisplatin; FIG. 3B", "procedure": "Kidneys were removed from -80° C. and minced on an ice block. Minced tissues were transferred to a dounce homogenizer and homogenized with 20× strokes of the 'loose' pestle and 20× strokes of the 'tight' pestle using 1 ml ul of cold mitochondrial isolation buffer (MIB, 50 mM Tris-HCl (pH 7.5), 70 mM sucrose, 210 mM sorbitol, 1 mM EDTA, 1 mM EGTA, 100 mM chloroacetamide, HaltTM Protease and Phosphatase Inhibitor Cocktail, EDTA-free (100×) (PI), 10 μM PR619). Kidney homogenate was transferred to a 1.5 ml Eppendorf tube and were centrifuged at 300×g for 5 min at 4° C. Approximately 800 ul of supernatant was transferred to a new 1.5 ml microcentrifuge tube. The supernatant (cytosol+mitochondria) was transferred to a new tube and centrifuged at 10,000 g for 20 min at 4° C. to pellet the mitochondrial fraction. […] The total protein concentration of kidney mitopreps was measured with the Thermo Scientific Pierce BCA Protein Assay Kit (Thermo Scientific), according to its product manual. […] For each lane of a 26 well gel (4-20% CriterionTM Tris-HCl Protein Gel, Bio-Rad Laboratories), 10 μg per sample was loaded and analyzed by Western Blotting. Indicated bands were quantified using ImageStudio Lite and normalized to beta actin band intensity. […]"}, "[1]": {"experiment": "body weight loss in cisplatin-challenged mice", "assay_type": "in vivo, mice (C57Bl/6)", "procedure": "Referring to FIG. 9, mice (C57Bl/6) were challenged with a single intraperitoneal dose of 10 mg/kg cisplatin or saline (not shown) and dosed by oral gavage once per day (QD) with 35985."}, "[2]": {"tested_on": "HeLa cells expressing a YFP-tagged Parkin", "experiment": "Parkin recruitment to mitochondria, longitudinal imaging", "assay_type": "cell-based", "details": "1 mM of FCCP and Oligomycin then specified dose, percentage of cells with Parkin recruited at 60 minutes, FIG. 2", "procedure": "HeLa cells expressing a YFP-tagged Parkin were treated with […] of FCCP and Oligomycin followed by the specified dose of compound, then analyzed by longitudinal imaging. Percentage of cells with Parkin recruited to mitochondria at 60 minutes is shown."}, "[3]": {"tested_on": "KIM-1 (kidney-injury marker 1)", "experiment": "urine KIM-1 ELISA in cisplatin-challenged mice", "assay_type": "in vivo, mice (C57Bl/6)", "details": "for KIM-1 (urine biomarker for kidney injury): single i.p. 10 mg/kg cisplatin, day 3 post-challenge", "procedure": "Urine was collected from scruffed mice (serial collection) or directly from bladder using insulin syringe during harvest (terminal collection). KIM-1 was measured in mouse urine using R&D System's Mouse TIM-1/KIM-1/HAVCR DuoSet ELISA following manufacturer's published protocol.\nReferring to FIG. 10, mice (C57Bl/6) were challenged with a single intraperitoneal dose of 10 mg/kg cisplatin or saline (not shown) and dosed by oral gavage once per day (QD) with 35985."}, "[4]": {"tested_on": "HeLa cells expressing a mitophagy indicator (mtKeima) protein", "experiment": "mitophagy in HeLa cells expressing mtKeima, FACS", "assay_type": "cell-based", "details": "1 mM of FCCP and Oligomycin then specified dose of compound, FIG. 1", "procedure": "Briefly, HeLa cells expressing a mitophagy indicator (mtKeima) protein were treated with […] of FCCP and Oligomycin followed by the specified dose of compound, then analyzed by FACS to quantify the percentage of cells undergoing mitophagy."}, "GDF15": {"tested_on": "GDF15", "experiment": "serum GDF15 ELISA in cisplatin-challenged mice", "assay_type": "in vivo, mice (C57Bl/6)", "details": "single i.p. 10 mg/kg cisplatin; oral gavage QD 20 mg/kg or 50 mg/kg; after 7 days; FIG. 13", "procedure": "For tissue harvest, mice were anesthetized using isofluorane. Cardiac puncture was performed to withdraw blood for serum collection. Blood was deposited into serum separator tubes and left undisturbed for 30 min to 1 hr at room temperature to allow clotting prior to serum separation by centrifugation for 2 min (10,000 g, room temperature). Collected serum was transferred to Eppendorf tubes and frozen on dry ice. After cervical dislocation, left and right kidneys were extracted and frozen until analysis.\nReferring to FIG. 13, mice (C57Bl/6) were challenged with a single intraperitoneal dose of 10 mg/kg cisplatin or saline and dosed by oral gavage once per day (QD) with 20 mg/kg or 50 mg/kg 35985."}}, "note": "Entries after “also recorded” stand apart in the source; their conditions may differ."}
{"smiles": "N.N.[Cl][Pt][Cl]", "note": "[cisplatin, reference compound]", "values": [{"measurement": "pS65-Ub in kidney mitochondria", "setting": "pS65-Ub; C57Bl/6, FIG. 3A", "result": "pS65-Ub increase"}, {"measurement": "kidney mitochondria pS65-Ub levels", "setting": "pS65-Ub; PINK1 KO mice, different times, FIG. 6, 30 mg/kg", "result": "does not induce a change in pS65 Ubiquitin; also recorded: remains unchanged"}, {"measurement": "mitochondrial DNA (mtDNA/nucDNA ratio; ND1 vs beta actin)", "setting": "mitochondrial DNA; C57Bl/6, single i.p. 10 mg/kg cisplatin, FIG. 4", "result": "induces reduction in mtDNA/nucDNA ratio; also recorded: significant reduction in mitochondrial DNA"}, {"measurement": "PINK1 protein in kidney mitochondria", "setting": "PINK1", "result": "induction of PINK1"}]}
{"smiles": "FC(F)(F)c1cc2c(N[C@@H]3CCCc4ccccc43)ncnc2[nH]1", "note": "[compound 35985]", "values": [{"measurement": "cisplatin-mediated mitochondrial DNA loss", "setting": "mitochondrial DNA; single i.p. 10 mg/kg cisplatin, oral gavage QD seven days, at 10 mg/kg and above, FIG. 12", "result": "ameliorates mtDNA loss upon cisplatin challenge; also recorded: rescued cisplatin-mediated mitochondrial DNA loss"}, {"measurement": "cisplatin-mediated weight-loss", "setting": "[1]; single i.p. 10 mg/kg cisplatin, 35985 oral gavage QD, FIG. 9, 10 mg/kg", "result": "ameliorates cisplatin-induced body-weight loss; also recorded: dose-dependent rescue of cisplatin-mediated weight-loss"}, {"measurement": "rate of Parkin recruitment to mitochondria", "setting": "[2]", "result": "accelerate recruitment of Parkin to mitochondria; also recorded: dose responsive increase in the rate of Parkin recruitment to mitochondria"}, {"measurement": "KIM-1 (urine biomarker for kidney injury)", "setting": "[3]; 35985 oral gavage QD, FIG. 10", "result": "reduces kidney damage in cisplatin challenged mice; also recorded: dose-dependent rescue of KIM-1"}, {"measurement": "percentage of cells undergoing mitophagy", "setting": "[4]", "result": "induce mitophagy in a dose dependent manner; also recorded: dose responsive increase in the percentage of cells undergoing mitophagy"}, {"measurement": "mitochondrial-stress serum biomarker GDF15 (ELISA)", "setting": "GDF15", "result": "reduces serum GDF15 levels; also recorded: reduced mitochondrial-stress serum biomarker GDF15"}]}
{"smiles": "c1ccc2c(c1)OC[C@@H](N1CCOCC1)[C@@H]2Nc1ncnc2[nH]c(C3CC3)cc12", "note": "[compound 40180]", "values": [{"measurement": "rate of Parkin recruitment to mitochondria", "setting": "[2]", "result": "accelerate recruitment of Parkin to mitochondria; also recorded: dose responsive increase in the rate of Parkin recruitment to mitochondria"}, {"measurement": "KIM-1 (urine biomarker for kidney injury)", "setting": "[3]; 40180 oral gavage QD, FIG. 14", "result": "reduces KIM-1; also recorded: dose-dependent rescue of KIM-1"}, {"measurement": "percentage of cells undergoing mitophagy", "setting": "[4]", "result": "induce mitophagy in a dose dependent manner; also recorded: dose responsive increase in the percentage of cells undergoing mitophagy"}]}
{"smiles": "FC(F)(F)c1cc2c(N[C@H]3c4ccccc4CC[C@@H]3C3C[C@@H]4COC[C@H]4C3)ncnc2[nH]1", "note": "[compound 40270]", "values": [{"measurement": "kidney dysfunction, KIM-1 levels", "setting": "[3]; single dose cisplatin 10 mg/kg i.p., 53 mg/kg p.o., b.i.d., FIG. 17", "result": "reduces KIM-1; also recorded: Dysfunction was ameliorated"}]}
{"smiles": "C[C@@H]1CN([C@@H]2COc3cc(F)ccc3[C@H]2Nc2ncnc3[nH]c(C(F)(F)F)cc23)CCO1", "note": "[compound 41088]", "values": [{"measurement": "cisplatin-induced weight loss", "setting": "[1]; single dose cisplatin 10 mg/kg i.p., p.o., q.d. at 1.56, 3.13, 6.25 and 12.5 mg/kg, FIG. 18", "result": "reduces weight loss; also recorded: Weight loss was ameliorated"}]}
